According to patent US20240299395A1, “COMBINATION THERAPIES COMPRISING WEE1 INHIBITORS AND DNA DAMAGE RESPONSE (DDR) INHIBITORS” (Recurium IP Holdings, LLC, priority 2021, published 2024):
Like-named read-outs stand apart in the source and are kept apart here.

Assays:
Format in all cases: cell-based
HL-60 (AML) cell line = test: CellTiter-Glo (CTG) cell viability, HL-60; conditions: for single agent activity (figure legend): HL-60, FIGS. 9-11, 72 h
Procedure: (§1) 20,000 MDA-MB-231 cells were incubated in a 96 well plate as a triplicate with 500 nM of ZN-c3 and 10 nM of CHK inhibitor or 700 nM of ATR inhibitor as a single agent or the combination of both for 72 h. 20,000 H23 cells were incubated in a 96 well plate as a triplicate with 150 nM of ZN-c3 and 5 nM of CHK inhibitor or 500 nM of ATR inhibitor as a single agent or the combination of both for 72 h. 10,000 MV4-11 cells were incubated in a 96 well plate as a triplicate with 400 nM of ZN-c3 and 2 nM of CHK inhibitor or 2000 nM of ATM inhibitor as a single agent or the combination of both for 72 h. 20,000 THP-1 cells were incubated in a 96 well plate as a triplicate with 600 nM of ZN-c3 and 4 nM of CHK inhibitor or 1000 nM of ATR inhibitor as a single agent or the combination of both for 72 h. 10,000 HL-60 cells were incubated in a 96 well plate as a triplicate with 750 nM of ZN-c3 and 15 nM of CHK inhibitor or 2000 nM of ATM inhibitor as a single agent or the combination of both for 72 h. 10,000 LNCaP cells were incubated in a 96 well plate as a triplicate with 500 nM of ZN-c3 and 10 nM of CHK inhibitor or 1000 nM of ATM inhibitor as a single agent or the combination of both for 72 h. For each cell line, the cell viability was assessed using a CellTiter-Glo® (CTG) assay.
(§2) 10,000 MV4-11 cells were incubated in a 96 well plate as a triplicate with 2 nM of ZN-d5, 400 nM of ZN-c3 and 2 nM of CHK inhibitor or 2000 nM of ATM inhibitor or 150 nM of ATR inhibitor as a single, double or triple combination for 72 h. 20,000 THP-1 cells were incubated in a 96 well plate as a triplicate with 100 nM of ZN-d5, 600 nM of ZN-c3 and 4 nM of CHK inhibitor or 1000 nM of ATM inhibitor or 1000 nM of ATR inhibitor as a single, double or triple combination for 72 h. 10,000 HL-60 cells were incubated in a 96 well plate as a triplicate with 75 nM of ZN-d5, 750 nM of ZN-c3 and 15 nM of CHK inhibitor or 2000 nM of ATM inhibitor or 1000 nM of ATR inhibitor as a single, double or triple combination for 72 h. For each cell line, the cell viability was assessed using a CellTiter-Glo® (CTG) assay.

THP-1 (AML) cell line = test: CellTiter-Glo (CTG) cell viability, THP-1; conditions: for single agent activity (figure legend): THP-1, FIGS. 7-8, 72 h
Procedure: as §1, §2

[1] = tested on: LNCaP (Prostate) cell line; test: CellTiter-Glo (CTG) cell viability, LNCaP; conditions: for single agent activity (figure legend): FIGS. 12-13, 72 h
Procedure: as §1

MV4-11 (AML) cell line = test: CellTiter-Glo (CTG) cell viability, MV4-11; conditions: for single agent activity (figure legend): MV4-11, FIGS. 5-6, 72 h
Procedure: as §1, §2

H23 (NSCLC) cell line = test: CellTiter-Glo (CTG) cell viability, H23; conditions: for single agent activity (figure legend): H23, FIGS. 3-4, 72 h
Procedure: as §1

[2] = tested on: MDA-MB-231 (TNBC) cell line; test: CellTiter-Glo (CTG) cell viability, MDA-MB-231; conditions: for single agent activity (figure legend): MDA-MB-231, FIGS. 1-2, 72 h
Procedure: as §1

[3] = Table 4, 75 nM ZN-d5, 750 nM ZN-c3, 15 nM CHK inhibitor, 2000 nM ATM inhibitor, 1000 nM ATR inhibitor, single, double or triple combination, 72 h
[4] = Table 4, 100 nM ZN-d5, 600 nM ZN-c3, 4 nM CHK inhibitor, 1000 nM ATM inhibitor, 1000 nM ATR inhibitor, single, double or triple combination, 72 h
[5] = Table 4, 2 nM ZN-d5, 400 nM ZN-c3, 2 nM CHK inhibitor, 2000 nM ATM inhibitor, 150 nM ATR inhibitor, single, double or triple combination, 72 h
[6] = Table 1, 500 nM ZN-c3, 10 nM CHK inhibitor, single agent or combination, 72 h
[7] = Table 1, 150 nM ZN-c3, 5 nM CHK inhibitor, single agent or combination, 72 h
[8] = Homo sapiens, HL-60, 72 h, Table 4, 75 nM ZN-d5, 750 nM ZN-c3, 15 nM CHK inhibitor, 2000 nM ATM inhibitor, 1000 nM ATR inhibitor, single, double or triple combination, 72 h, read-out: HL60 % Inhibition
[9] = Homo sapiens, THP-1, 72 h, Table 4, 100 nM ZN-d5, 600 nM ZN-c3, 4 nM CHK inhibitor, 1000 nM ATM inhibitor, 1000 nM ATR inhibitor, single, double or triple combination, 72 h
[10] = Homo sapiens, MV4-11, 72 h, Table 4, 2 nM ZN-d5, 400 nM ZN-c3, 2 nM CHK inhibitor, 2000 nM ATM inhibitor, 150 nM ATR inhibitor, single, double or triple combination, 72 h

Compound: CN(C)CCCOc1ccc(-c2ccc3ncc4c(c3c2)n(C2CCOCC2)c(=O)n4C)cn1 [ATMi, AZD0156]
- single agent activity (figure legend) (HL-60 (AML) cell line): practically no activity
- HL60 % Inhibition (HL-60 (AML) cell line; Table 3, 750 nM ZN-c3, 2000 nM ATM inhibitor, single agent or combination, 72 h): 3%
- HL60 % Inhibition (HL-60 (AML) cell line; [3]): 2.95%
- single agent activity (figure legend) (THP-1 (AML) cell line): single agent activity was observed
- THP % Inhibition (THP-1 (AML) cell line; [4]): 19.52%
- single agent activity (figure legend) ([1]; LNCaP): single agent activity was observed
- LNCaP % Inhibition ([1]; Table 3, 500 nM ZN-c3, 1000 nM ATM inhibitor, single agent or combination, 72 h): 14%
- single agent activity (figure legend) (MV4-11 (AML) cell line): single agent activity was observed
- MV4; 11 % Inhibition (MV4-11 (AML) cell line; Table 3, 400 nM ZN-c3, 2000 nM ATM inhibitor, single agent or combination, 72 h): 18%
- MV4; 11 % Inhibition (MV4-11 (AML) cell line; [5]): 18.48%

Compound: CNCc1ccc(-c2cc(-c3nc(-c4ccc(S(=O)(=O)C(C)C)cc4)cnc3N)on2)cc1 [ATRi, Berzosertib]
- single agent activity (figure legend) (HL-60 (AML) cell line): single agent activity was observed
- inhibition at 1 µM (HL-60 (AML) cell line; Homo sapiens, HL-60, 72 h, Table 2, 750 nM ZN-c3, ATR inhibitor (1000 nM), single agent or combination, 72 h, read-out: HL60 % Inhibition): 15%
- HL60 % Inhibition (HL-60 (AML) cell line; [3]): 15.91%
- THP % Inhibition (THP-1 (AML) cell line; Table 2, 600 nM ZN-c3, 1000 nM ATR inhibitor, single agent or combination, 72 h): 37%
- THP % Inhibition (THP-1 (AML) cell line; [4]): 36.93%
- single agent activity (figure legend) (H23 (NSCLC) cell line): single agent activity was observed
- H23 % Inhibition (H23 (NSCLC) cell line; Table 2, 150 nM ZN-c3, 500 nM ATR inhibitor, single agent or combination, 72 h): 35%
- single agent activity (figure legend) [2]: single agent activity was observed
- MDA-MB-231 % Inhibition ([2]; Table 2, 500 nM ZN-c3, 700 nM ATR inhibitor, single agent or combination, 72 h): 33%
- MV4; 11 % Inhibition (MV4-11 (AML) cell line; [5]): 13.99%

Compound: COc1cccc(OCCCN)c1-c1cc(Nc2cnc(C#N)cn2)n[nH]1 [CHKi, Prexasertib]
- single agent activity (figure legend) (HL-60 (AML) cell line): no activity
- HL60 % Inhibition (HL-60 (AML) cell line; Table 1, 750 nM ZN-c3, 15 nM CHK inhibitor, single agent or combination, 72 h): 0%
- HL60 % Inhibition (HL-60 (AML) cell line; [3]): 0%
- THP % Inhibition (THP-1 (AML) cell line; Table 1, 600 nM ZN-c3, 4 nM CHK inhibitor, single agent or combination, 72 h): 32%
- THP % Inhibition (THP-1 (AML) cell line; [4]): 32.29%
- single agent activity (figure legend) ([1]; LNCaP): single agent activity was observed
- LNCaP % Inhibition [1, 6]: 14%
- single agent activity (figure legend) (H23 (NSCLC) cell line): practically no activity
- H23 % Inhibition (H23 (NSCLC) cell line; [7]): 1%
- single agent activity (figure legend) [2]: single agent activity was observed
- MDA-MB-231 % Inhibition [2, 6]: 26%
- single agent activity (figure legend) (MV4-11 (AML) cell line): no activity
- MV4; 11 % Inhibition (MV4-11 (AML) cell line; Table 1, 400 nM ZN-c3, 2 nM CHK inhibitor, single agent or combination, 72 h): 0%
- MV4; 11 % Inhibition (MV4-11 (AML) cell line; [5]): 0%

Compound: C=CCn1c(=O)c2cnc(Nc3ccc(N4CCN(C)CC4)cc3)nc2n1-c1ccc2c(n1)[C@@](O)(CC)CC2 [ZN-c3]
- single agent activity (figure legend) (HL-60 (AML) cell line): single agent activity was observed
- inhibition at 0.75 µM (HL-60 (AML) cell line; Homo sapiens, HL-60, 72 h, Table 1, 750 nM ZN-c3, 15 nM CHK inhibitor, single agent or combination, 72 h, read-out: HL60 % Inhibition): 25%
- inhibition at 0.75 µM (HL-60 (AML) cell line; Homo sapiens, HL-60, 72 h, Table 3, 750 nM ZN-c3, 2000 nM ATM inhibitor, single agent or combination, 72 h, read-out: HL60 % Inhibition): 25%
- inhibition at 0.75 µM (HL-60 (AML) cell line; [8]): 25.5%
- inhibition at 0.6 µM (THP-1 (AML) cell line; Homo sapiens, THP-1, 72 h, Table 1, 600 nM ZN-c3, 4 nM CHK inhibitor, single agent or combination, 72 h): 18%
- inhibition at 0.6 µM (THP-1 (AML) cell line; Homo sapiens, THP-1, 72 h, Table 2, 600 nM ZN-c3, 1000 nM ATR inhibitor, single agent or combination, 72 h): 18%
- inhibition at 0.6 µM (THP-1 (AML) cell line; [9]): 18.1%
- single agent activity (figure legend) (THP-1 (AML) cell line): single agent activity was observed
- inhibition at 0.5 µM ([1]; Homo sapiens, LNCaP, Table 1, 500 nM ZN-c3, 10 nM CHK inhibitor, single agent or combination, 72 h): 24%
- single agent activity (figure legend) ([1]; LNCaP): single agent activity was observed
- single agent activity (figure legend) (H23 (NSCLC) cell line): single agent activity was observed
- inhibition at 0.15 µM (H23 (NSCLC) cell line; [7]): 22%
- inhibition at 0.5 µM ([2]; Homo sapiens, MDA-MB-231, Table 1, 500 nM ZN-c3, 10 nM CHK inhibitor, single agent or combination, 72 h): 35%
- single agent activity (figure legend) [2]: single agent activity was observed
- inhibition at 0.4 µM (MV4-11 (AML) cell line; Homo sapiens, MV4-11, 72 h, Table 1, 400 nM ZN-c3, 2 nM CHK inhibitor, single agent or combination, 72 h): 49%
- inhibition at 0.4 µM (MV4-11 (AML) cell line; Homo sapiens, MV4-11, 72 h, Table 3, 400 nM ZN-c3, 2000 nM ATM inhibitor, single agent or combination, 72 h): 49%
- inhibition at 0.4 µM (MV4-11 (AML) cell line; [10]): 49.2%
- single agent activity (figure legend) (MV4-11 (AML) cell line): single agent activity was observed

Compound: CC1(C)CCC(CN2CCN(c3ccc(C(=O)NS(=O)(=O)c4ccc(NC[C@H]5CC[C@](C)(O)CC5)c([N+](=O)[O-])c4)c(Oc4cnc5[nH]ccc5c4)c3)CC2)=C(C23CC(C(F)F)(C2)C3)C1 [ZN-d5, 2-((1H-pyrrolo[2,3-b]pyridin-5-yl)oxy)-4-(4-((2-(3-(difluoromethyl)bicyclo[1.1.1]pentan-1-yl)-4,4-dimethylcyclohex-1-en-1-yl)methyl)piperazin-1-yl)-N-((4-((((1r,4r)-4-hydroxy-4-methylcyclohexyl)methyl)amino)-3-nitrophenyl)sulfonyl)benzamide]
- inhibition at 0.075 µM (HL-60 (AML) cell line; [8]): 37.6%
- inhibition at 0.1 µM (THP-1 (AML) cell line; [9]): 2.6%
- inhibition at 0.002 µM (MV4-11 (AML) cell line; [10]): 8.44%
